Here are results for 42 molecules from PubChem BioAssay AID1996.

≈ marks a conversion by molar mass, not a printed value.

For the data set the following is noted: buffer; pH 7.4; 200.0 µM.
On to `O=C(O)c1ccc(S(=O)(=O)N2CCCC2)cc1`, for which the solubility (kinetic) came to 37.6 µg/mL (≈ 147 µM).

`COc1ccc(N2CC(C(=O)Nc3cccnc3)CC2=O)cc1` (configuration not stated) came in with a solubility (kinetic) of more than 46.7 µg/mL.

On to `O=S1(=O)CC2SC(=S)N(c3ccccc3)C2C1` (configuration not stated), for which the solubility (kinetic) was 1.3 µg/mL (≈ 4.55 µM).

Turning to `S=C(Nc1ccc(Cl)cc1)Nc1ccc2c(c1)OCCO2`, the solubility (kinetic) stood at 8.9 µg/mL (≈ 27.7 µM).

As for `CCCN(CCC)C(=O)Nc1cc(Cl)ccc1OC`, the solubility (kinetic) worked out at 31.9 µg/mL (≈ 112 µM).

`CC(=O)Nc1nc(C)c(C(C)C)s1` yielded a solubility (kinetic) of more than 29.7 µg/mL.

Consider `Cc1oc(-c2ccoc2)nc1CN(CC1CCC(=O)N1)C(C)C` (configuration not stated), for which the solubility (kinetic) came to 38.8 µg/mL (≈ 122 µM).

Molecule `O=C(NCN1CCOCC1)c1cnccn1` had a kinetic solubility of 30.6 µg/mL (≈ 138 µM).

On to `OCC1OC(n2cnc3c(NCCc4ccccc4)ncnc32)C(O)C1O` (configuration not stated), for which the solubility (kinetic) was more than 55.7 µg/mL.

Molecule `Cc1nc2ccc(NC(=O)C3=NN(C)C(=O)CC3)cc2s1` registered a solubility (kinetic) of more than 45.4 µg/mL.

Regarding `COc1ccc(C2Nc3ccccc3C(=O)N2NC(C)=O)cc1OC` (configuration not stated), the solubility (kinetic) was more than 51.2 µg/mL.

In the case of `COc1ccc2c(c1)c(C(=O)O)c(C)n2-c1ccc(Cl)cc1`, the solubility (kinetic) was found to be 15.2 µg/mL (≈ 48.1 µM).

For `COc1cccc(C(=O)N2CCN(c3ccccn3)CC2)c1`, the kinetic solubility was determined as 43.8 µg/mL (≈ 147 µM).

In turn, `COC(=O)c1cc(=O)n2c(sc3ccccc32)c1C#N` had a kinetic solubility of 1.3 µg/mL (≈ 4.57 µM).

`COc1ccc(NC(=O)C2CC(=O)N(c3ccccc3C)C2)c(OC)c1` (configuration not stated): the kinetic solubility was more than 53.2 µg/mL.

As for `NC1=NC(=O)C(Cc2ccc(F)cc2)S1` (configuration not stated), the kinetic solubility is 22 µg/mL (≈ 98.1 µM).

The molecule `CC(C)c1ccccc1NC(=O)COC(=O)c1cccnc1` registered a solubility (kinetic) of more than 44.8 µg/mL.

For `Cc1ccc(NC(=S)NCc2ccccc2)c(C)c1`, the kinetic solubility came out at 39.2 µg/mL (≈ 145 µM).

On to `CSc1ccccc1C(=O)N(C)Cc1ccccc1`, for which the kinetic solubility was more than 40.7 µg/mL.

`CCOC(=O)c1c(CC(C)C)csc1NC(=O)c1ccccc1C(=O)O` displayed a solubility (kinetic) of 54.1 µg/mL (≈ 144 µM).

As to `COc1cccc(C(=O)Nc2ccc3c(c2)n(C)c(=O)n3C)c1`, the kinetic solubility was more than 46.7 µg/mL.

The molecule `CCOC(=O)C1=C(CCl)NC(=O)NC1c1ccc2c(c1)OCO2` (configuration not stated) showed a kinetic solubility of more than 50.8 µg/mL.

`N#Cc1ccc(CN2C(=O)NC3(CCCCCC3)C2=O)cc1`: the solubility (kinetic) was determined as 25.7 µg/mL (≈ 86.4 µM).

On to `CCC(C)(C)NC(=O)C1CCCN1C(=O)NC1CCCCC1` (configuration not stated), for which the solubility (kinetic) is more than 46.4 µg/mL.

As for `O=c1[nH]cccc1-c1nc2ccccc2n1Cc1cccc(Cl)c1`, the kinetic solubility came to 1.4 µg/mL (≈ 4.17 µM).

In turn, `O=C(c1cccc(Oc2ccccc2)c1)N1CCOCC1` returned a kinetic solubility of more than 42.5 µg/mL.

`CCCn1c(C)c(C(=O)OCC)c(O)c(-c2ccccc2)c1=O` displayed a solubility (kinetic) of more than 47.3 µg/mL.

Turning to `CC(=O)NC(c1ccc(C(C)C)cc1)c1ccc2cccnc2c1O` (configuration not stated), the kinetic solubility came to 0.4 µg/mL (≈ 1.2 µM).

For the molecule `CC1CCCN(c2c3c(nc4ccccc24)CCCC3)C1` (configuration not stated), the solubility (kinetic) came to 0.6 µg/mL (≈ 2.14 µM).

Turning to `COc1ccccc1NC(=S)N1CCCc2ccccc21`, the kinetic solubility was found to be 22.9 µg/mL (≈ 76.7 µM).

In turn, `CCCC(=O)NC(=S)c1c(C)n(C)n(-c2ccccc2)c1=O` returned a solubility (kinetic) of more than 47.6 µg/mL.

`C=CCN=C1CCCc2c1[nH]c1ccc(C)cc21` returned a solubility (kinetic) of 10.3 µg/mL (≈ 43.2 µM).

`O=C1CCc2ccc(NC(=O)C3CC3)cc2N1` gave a solubility (kinetic) of more than 34.5 µg/mL.

`Cc1nc(Nc2ccccc2F)c2oc3ccccc3c2n1` had a solubility (kinetic) of 0.3 µg/mL (≈ 1.02 µM).

`CC(=O)Oc1ccc(-c2nc3cc(Cl)ccc3c(=O)o2)cc1` yielded a solubility (kinetic) of 1.7 µg/mL (≈ 5.38 µM).

In the case of `COc1cccc(OC)c1OCCOCCN1CCN(C)CC1`, the kinetic solubility came to 48.6 µg/mL (≈ 150 µM).

`Cn1ncc(Br)c1C(=O)N1CCCCCC1` registered a solubility (kinetic) of more than 42.9 µg/mL.

Molecule `COc1ccccc1OCCC(=O)NCc1ccc2c(c1)OCO2` yielded a kinetic solubility of 45.1 µg/mL (≈ 137 µM).

Molecule `Cc1c(Cl)cccc1NC(=O)CCN1C(=O)NC(C)(C)C1=O` showed a solubility (kinetic) of more than 48.6 µg/mL.

Molecule `C1=C(c2ccccc2)CCNC1.Cl` showed a solubility (kinetic) of 24.9 µg/mL.

`CN(C)CCNC(=O)c1ccccc1-c1cc2ccccc2c(=O)o1` had a solubility (kinetic) of more than 50.5 µg/mL.

For `CC(C)Oc1ccc(Cc2cnc(=S)[nH]c2N)cc1`, the solubility (kinetic) amounted to 15.4 µg/mL (≈ 55.9 µM).
